Key:
Assay type in all cases: cell-based, mouse
[1] = system: α7 integrin (LacZ reporter in α7βgal+/− myoblasts); assay: Myoblast α7+/LacZ integrin FDG assay (Burkin assay in myoblasts, 96-well); conditions: α7+/LacZ myoblasts, 96-well; for fold induction at 0.5 µM / fold induction at 1 µM / fold induction at 5 µM / fold induction at 10 µM / fold induction at 20 µM / fold induction at 40 µM: Mus musculus, Myoblast, 48 h, read-out: Burkin Assay in Myoblasts, value relative to DMSO
[2] = system: β-galactosidase in CMV-LacZ C2C12 myotubes; assay: CMV-LacZ secondary screen in C2C12 myotubes (β-Gal stabilizing assay); conditions: for CMV-LACZ in Myotubes, signal relative to DMSO: C2C12 CMV-LacZ myotubes, fold relative to DMSO; for CMV-LACZ in Myotubes (β-galactosidase activity relative to DMSO): CMV-LacZ C2C12 myotubes, 96-well format
How it was run: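 Stable CMV-LacZ C2C12 clone; six-point curve 0.5–40 μM; duplicates.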

[3] = system: α7 integrin (LacZ reporter in α7+/LacZ myotubes); assay: Myotube α7 integrin FDG assay (Burkin assay in myotubes, 96-well); conditions: myotubes; for fold induction at 0.5 µM / fold induction at 1 µM / fold induction at 5 µM / fold induction at 10 µM / fold induction at 20 µM / fold induction at 40 µM: Mus musculus, Myotube, read-out: Burkin Assay in Myotubes (signal relative to DMSO)

| Compound | Burkin Assay in Myoblasts, value relative to DMSO ([1]; 0.5 uM) | Burkin Assay in Myoblasts, value relative to DMSO ([1]; 1 uM) | Burkin Assay in Myoblasts, value relative to DMSO ([1]; 5 uM) | Burkin Assay in Myoblasts, value relative to DMSO ([1]; 10 uM) | Burkin Assay in Myoblasts, value relative to DMSO ([1]; 20 uM) | Burkin Assay in Myoblasts, value relative to DMSO ([1]; 40 uM) | CMV-LACZ in Myotubes, signal relative to DMSO ([2]; 5 uM) | CMV-LACZ in Myotubes, signal relative to DMSO ([2]; 10 uM) | CMV-LACZ in Myotubes, signal relative to DMSO ([2]; 20 uM) | CMV-LACZ in Myotubes, signal relative to DMSO ([2]; 40 uM) | Burkin Assay in Myotubes (signal relative to DMSO) ([3]; 0.5 uM) | Burkin Assay in Myotubes (signal relative to DMSO) ([3]; 1 uM) | Burkin Assay in Myotubes (signal relative to DMSO) ([3]; 5 uM) | Burkin Assay in Myotubes (signal relative to DMSO) ([3]; 10 uM) | Burkin Assay in Myotubes (signal relative to DMSO) ([3]; 20 uM) | Burkin Assay in Myotubes (signal relative to DMSO) ([3]; 40 uM) | CMV-LACZ in Myotubes (β-galactosidase activity relative to DMSO) ([2]; 5 uM) | CMV-LACZ in Myotubes (β-galactosidase activity relative to DMSO) ([2]; 10 uM) | CMV-LACZ in Myotubes (β-galactosidase activity relative to DMSO) ([2]; 20 uM) | CMV-LACZ in Myotubes (β-galactosidase activity relative to DMSO) ([2]; 40 uM) | other results |
| --- | --- | --- | --- | --- | --- | --- | --- | --- | --- | --- | --- | --- | --- | --- | --- | --- | --- | --- | --- | --- | --- |
| COc1cc(CNCc2ccc(C(=O)O)cc2)ccc1OCc1ccc(F)cc1.Cl [MLS001216405-01] | 1.132 | 0.9785 | 0.9945 | 0.9208 | 0.9202 | 0.7667 | 0.9192 | 0.8008 | 1.345 | 1.08 | 1.128 | 0.9927 | 1.124 | 0.9642 | 0.9387 | 0.8706 | – | – | – | – | – |
| CCc1ccc(N(C(=O)c2snc(C(N)=O)c2N)C(C(=O)NC2CCCC2)c2ccco2)cc1 (centres unmarked) [MLS001216714-01] | – | – | – | – | – | – | – | – | – | – | – | – | – | – | – | – | 0.9162 | 0.98 | 1.417 | 3.633 | fold induction at 0.5 µM ([1]; 0.5 uM): 1.02; fold induction at 1 µM ([1]; 1 uM): 0.971; fold induction at 5 µM ([1]; 5 uM): 1.04; fold induction at 10 µM ([1]; 10 uM): 1.14; fold induction at 20 µM ([1]; 20 uM): 1.09; fold induction at 40 µM ([1]; 40 uM): 0.274; fold induction at 0.5 µM ([3]; 0.5 uM): 1.03; fold induction at 1 µM ([3]; 1 uM): 1.17; fold induction at 5 µM ([3]; 5 uM): 1.1; fold induction at 10 µM ([3]; 10 uM): 1.32; fold induction at 20 µM ([3]; 20 uM): 0.706; fold induction at 40 µM ([3]; 40 uM): 0.677 |
| Cc1nnc(NC(=O)CSc2nnc(CCNC(=O)c3ccccc3F)n2C)s1 [MLS001217045-01] | 0.881 | 0.9697 | 1.087 | 1.112 | 1.057 | 1.109 | – | – | – | – | 1.001 | 1.156 | 0.94 | 1.154 | 1.115 | 1.051 | 0.9613 | 0.9821 | 0.9272 | 0.9127 | – |
| O=c1[nH]c(C2CCCN(S(=O)(=O)c3ccccc3)C2)nc2c1nnn2Cc1cccc(Cl)c1 (centres unmarked) [MLS001217286-01] | 0.7428 | 0.8506 | 0.7671 | 0.8273 | 1.006 | 1.068 | – | – | – | – | 0.7617 | 0.9911 | 1.193 | 1.219 | 1.095 | 0.5964 | 0.9599 | 1.227 | 0.3991 | 0.3604 | – |
| CC1CCN(S(=O)(=O)c2ccc(S(=O)(=O)N3CCCC3)cc2)CC1 [MLS001217673-01] | – | – | – | – | – | – | 0.936 | 0.9409 | 1.161 | 0.9352 | – | – | – | – | – | – | – | – | – | – | Burkin Assay in Myoblasts, signal relative to DMSO ([1]; 0.5 uM): 0.8494; Burkin Assay in Myoblasts, signal relative to DMSO ([1]; 1 uM): 0.8343; Burkin Assay in Myoblasts, signal relative to DMSO ([1]; 5 uM): 0.9353; Burkin Assay in Myoblasts, signal relative to DMSO ([1]; 10 uM): 0.9256; Burkin Assay in Myoblasts, signal relative to DMSO ([1]; 20 uM): 0.8325; Burkin Assay in Myoblasts, signal relative to DMSO ([1]; 40 uM): 0.8079; Burkin Assay in Myotubes, α7 integrin LacZ reporter signal relative to DMSO ([3]; 0.5 uM): 0.8894; Burkin Assay in Myotubes, α7 integrin LacZ reporter signal relative to DMSO ([3]; 1 uM): 0.749; Burkin Assay in Myotubes, α7 integrin LacZ reporter signal relative to DMSO ([3]; 5 uM): 0.9699; Burkin Assay in Myotubes, α7 integrin LacZ reporter signal relative to DMSO ([3]; 10 uM): 0.9516; Burkin Assay in Myotubes, α7 integrin LacZ reporter signal relative to DMSO ([3]; 20 uM): 1.095; Burkin Assay in Myotubes, α7 integrin LacZ reporter signal relative to DMSO ([3]; 40 uM): 1.078 |
| CCCCNC(=O)CN(C(=O)c1snc(C(=O)NC2CCCCC2)c1N)c1ccc(OC)cc1OC [MLS001217697-01] | – | – | – | – | – | – | – | – | – | – | – | – | – | – | – | – | 1.2 | 0.8647 | 0.764 | 0.7395 | fold induction at 0.5 µM ([1]; 0.5 uM): 1.09; fold induction at 1 µM ([1]; 1 uM): 1.12; fold induction at 5 µM ([1]; 5 uM): 1.18; fold induction at 10 µM ([1]; 10 uM): 1.16; fold induction at 20 µM ([1]; 20 uM): 0.883; fold induction at 40 µM ([1]; 40 uM): 1.01; fold induction at 0.5 µM ([3]; 0.5 uM): 1.2; fold induction at 1 µM ([3]; 1 uM): 0.968; fold induction at 5 µM ([3]; 5 uM): 1.16; fold induction at 10 µM ([3]; 10 uM): 1.2; fold induction at 20 µM ([3]; 20 uM): 1.12; fold induction at 40 µM ([3]; 40 uM): 1.12 |
| COc1cc(C(C(=O)NC2CCCCC2)N(C(=O)c2snc(C(N)=O)c2N)c2ccc(C)cc2)ccc1O (centres unmarked) [MLS001218427-01] | – | – | – | – | – | – | 1.209 | 15.1793 | 34.571 | 0.6965 | – | – | – | – | – | – | – | – | – | – | Burkin Assay in Myoblasts, signal relative to DMSO ([1]; 0.5 uM): 0.9466; Burkin Assay in Myoblasts, signal relative to DMSO ([1]; 1 uM): 0.9485; Burkin Assay in Myoblasts, signal relative to DMSO ([1]; 5 uM): 0.8334; Burkin Assay in Myoblasts, signal relative to DMSO ([1]; 10 uM): 0.7663; Burkin Assay in Myoblasts, signal relative to DMSO ([1]; 20 uM): 0.2232; Burkin Assay in Myoblasts, signal relative to DMSO ([1]; 40 uM): 0.3039; Burkin Assay in Myotubes, α7 integrin LacZ reporter signal relative to DMSO ([3]; 0.5 uM): 0.8052; Burkin Assay in Myotubes, α7 integrin LacZ reporter signal relative to DMSO ([3]; 1 uM): 0.7974; Burkin Assay in Myotubes, α7 integrin LacZ reporter signal relative to DMSO ([3]; 5 uM): 0.8464; Burkin Assay in Myotubes, α7 integrin LacZ reporter signal relative to DMSO ([3]; 10 uM): 0.6054; Burkin Assay in Myotubes, α7 integrin LacZ reporter signal relative to DMSO ([3]; 20 uM): 0.3311; Burkin Assay in Myotubes, α7 integrin LacZ reporter signal relative to DMSO ([3]; 40 uM): 0.429 |
| COc1ccc(S(=O)(=O)Nc2ccc(S(=O)(=O)Nc3nccs3)cc2)cc1 [MLS001218795-01] | – | – | – | – | – | – | 0.9553 | 1.023 | 1.2115 | 0.989 | – | – | – | – | – | – | – | – | – | – | Burkin Assay in Myoblasts, signal relative to DMSO ([1]; 0.5 uM): 1.024; Burkin Assay in Myoblasts, signal relative to DMSO ([1]; 1 uM): 0.9596; Burkin Assay in Myoblasts, signal relative to DMSO ([1]; 5 uM): 0.8609; Burkin Assay in Myoblasts, signal relative to DMSO ([1]; 10 uM): 0.9116; Burkin Assay in Myoblasts, signal relative to DMSO ([1]; 20 uM): 0.9353; Burkin Assay in Myoblasts, signal relative to DMSO ([1]; 40 uM): 0.9876; Burkin Assay in Myotubes, α7 integrin LacZ reporter signal relative to DMSO ([3]; 0.5 uM): 0.9648; Burkin Assay in Myotubes, α7 integrin LacZ reporter signal relative to DMSO ([3]; 1 uM): 0.9363; Burkin Assay in Myotubes, α7 integrin LacZ reporter signal relative to DMSO ([3]; 5 uM): 0.9778; Burkin Assay in Myotubes, α7 integrin LacZ reporter signal relative to DMSO ([3]; 10 uM): 0.9991; Burkin Assay in Myotubes, α7 integrin LacZ reporter signal relative to DMSO ([3]; 20 uM): 0.9463; Burkin Assay in Myotubes, α7 integrin LacZ reporter signal relative to DMSO ([3]; 40 uM): 0.9606 |

From patent publication US9980943B2, “Methods of treating muscular dystrophy” (BOARD OF REGENTS OF THE NEVADA SYSTEM OF HIGHER EDUCATION, …, priority 2013, dated 2018)
